Results on 15 compounds are retold here after US9670194B2 (Calitor Sciences, LLC, priority 2013, dated 2017).

Data set [1] is described as follows: Compound stability in human liver microsomes. It counts as in vitro ADME. The settings on record: for half-life at 5 μM: human liver microsomes 0.5 mg protein/mL, compound 5 μM, NADPH 1.0 mM, 37° C.; for CLint scaled at 5 μM: human liver microsomes, in vivo CLint extrapolated.
The nature of data set [2]: Compound stability in rat liver microsomes. It counts as in vitro ADME. The settings on record: pH 7.4; for half-life at 5 μM: rat liver microsomes 0.5 mg protein/mL, compound 5 μM, NADPH 1.0 mM, 37° C.; for CLint scaled at 5 μM: rat liver microsomes, in vivo CLint extrapolated.
Data set [3] can be described thus: Pharmacokinetics after intravenous and oral administration in rats. Type of data set: in vivo, rat. To be noted: for clearance (CL) / AUC(0-t) / half-life / Vd / CL/F: iv dosing, dose 1 mg/kg; for bioavailability / AUC(0-t) / half-life / Vd: rat, plasma; for bioavailability: iv dose 1 mg/kg, oral dose generally 5 or 10 mg/kg; for Vd: read-out: Vss.

Turning to `CC[C@H](Nc1ncnc(N)c1-c1ncnn1C)c1nc2cccc(Cl)c2c(=O)n1C1CC1` [Ex. 9, 2-((1S)-1-((6-amino-5-(1-methyl-1H-1,2,4-triazol-5-yl)pyrimidin-4-yl)amino)-propyl)-5-chloro-3-cyclopropylquinazolin-4(3H)-one], in data set [1], the half-life at 5 μM worked out at 160 min and the intrinsic clearance (CLint scaled) at 5 μM is 10.9 mL/min/kg. In addition, in data set [2], the half-life at 5 μM worked out at 56.8 min and the CLint scaled at 5 μM is 43.8 mL/min/kg. Further, in data set [3], the “clearance (CL)” value was 27.3 mL/min/kg, the bioavailability came out at 158%, the AUC(0-t) worked out at 608 ng·h/mL and the half-life was 78 min. Further, in data set [3], the Vd is 2.12 L/kg.
Take `CC[C@H](Nc1ncnc(N)c1-c1ncn(C)n1)c1nc2cccc(C)c2c(=O)n1C1CC1` [Ex. 18, (S)-2-(1-((6-amino-5-(1-methyl-1H-1,2,4-triazol-3-yl)pyrimidin-4-yl)amino)propyl)-3-cyclopropyl-5-methylquinazolin-4(3H)-one]: in data set [1], the half-life at 5 μM is 16.5 min and the CLint scaled at 5 μM was 105 mL/min/kg. For the same compound, in data set [2], the half-life at 5 μM was 9.24 min and the CLint scaled at 5 μM is 269 mL/min/kg. In data set [3], the “clearance (CL)” value came to 54.2 mL/min/kg, the bioavailability is 60.6%, the exposure AUC(0-t) came to 307 ng·h/mL and the half-life is 53.4 min. Besides, in data set [3], the Vd came to 2.94 L/kg.
Consider `CC[C@H](Nc1ncnc(N)c1-c1nnn(C)n1)c1nc2cccc(F)c2c(=O)n1-c1ccccc1` [Ex. 43, (S)-2-(1-((6-amino-5-(2-methyl-2H-tetrazol-5-yl)pyrimidin-4-yl)amino)-propyl)-5-fluoro-3-phenylquinazolin-4(3H)-one], for which, in data set [1], the half-life at 5 μM came to 7.12 min and the intrinsic metabolic clearance (CLint scaled) at 5 μM is 244 mL/min/kg. In data set [2], the half-life at 5 μM is 7.15 min and the intrinsic metabolic clearance (CLint scaled) at 5 μM was 347 mL/min/kg. In data set [3], the “clearance (CL)” value was 36.8 mL/min/kg, the bioavailability was 90%, the AUC(0-t) was 452 ng·h/mL and the half-life is 91.2 min. Moreover, the Vd in data set [3] stood at 3.41 L/kg.
As for `CC[C@H](Nc1ncnc(N)c1-c1noc(C)n1)c1nc2cccc(F)c2c(=O)n1C1CC1` [Ex. 16, (S)-2-(1-((6-amino-5-(5-methyl-1,2,4-oxadiazol-3-yl)pyrimidin-4-yl)amino)-propyl)-3-cyclopropyl-5-fluoroquinazolin-4(3H)-one], in data set [1], the half-life at 5 μM was 22.9 min and the CLint scaled at 5 μM was 108 mL/min/kg. In addition, in data set [2], the half-life at 5 μM stood at 19.7 min and the CLint scaled at 5 μM was 126 mL/min/kg. In data set [3], the “clearance (CL)” value came to 68.7 mL/min/kg, the bioavailability was found to be 18.3%, the AUC(0-t) came out at 249 ng·h/mL and the half-life was 45.6 min. Besides, in data set [3], the Vd stood at 4.3 L/kg.
With `CC[C@H](Nc1ncnc(N)c1-c1noc(C)n1)c1nc2cccc(C)c2c(=O)n1C1CC1`, in data set [1], the half-life at 5 μM amounted to 19.6 min and the intrinsic clearance (CLint scaled) at 5 μM is 126 mL/min/kg. Further, in data set [2], the half-life at 5 μM was determined as 20 min and the CLint scaled at 5 μM was 124 mL/min/kg. For the same compound, in data set [3], the apparent clearance (CL/F) is 40.3 mL/min/kg, the bioavailability was 40.5%, the area under the curve AUC(0-t) amounted to 393 ng·h/mL and the half-life was 158 min. Moreover, in data set [3], the Vd amounted to 6.07 L/kg.
`CC[C@H](Nc1ncnc(N)c1-c1ncn(C)n1)c1nc2cccc(Cl)c2c(=O)n1-c1ccc(F)cc1` [Ex. 50, (S)-2-(1-((6-amino-5-(1-methyl-1H-1,2,4-triazol-3-yl)pyrimidin-4-yl)amino)propyl)-5-chloro-3-(4-fluorophenyl)quinazolin-4(3H)-one]: in data set [1], the half-life at 5 μM was determined as 11.4 min and the CLint scaled at 5 μM is 152 mL/min/kg. In data set [2], the half-life at 5 μM came out at 13.3 min and the CLint scaled at 5 μM is 186 mL/min/kg. In data set [3], the “clearance (CL)” value was found to be 86.7 mL/min/kg, the bioavailability is 28.3%, the AUC(0-t) amounted to 192 ng·h/mL and the half-life is 68.4 min. Also, the Vd in data set [3] was 3.96 L/kg.
`CC[C@H](Nc1ncnc(N)c1-c1ncn(C)n1)c1nc2cccc(Cl)c2c(=O)n1-c1ccccc1F` [Ex. 45, (S)-2-(1-((6-amino-5-(1-methyl-1H-1,2,4-triazol-3-yl)pyrimidin-4-yl)amino)-propyl)-5-chloro-3-(2-fluorophenyl)quinazolin-4(3H)-one]: in data set [1], the half-life at 5 μM turned out to be 10.7 min and the CLint scaled at 5 μM was 162 mL/min/kg. Further, in data set [2], the half-life at 5 μM came to 9 min and the intrinsic clearance (CLint scaled) at 5 μM is 276 mL/min/kg. In data set [3], the “clearance (CL)” value came to 61.8 mL/min/kg, the bioavailability stood at 70.2%, the area under the curve AUC(0-t) was determined as 278 ng·h/mL and the half-life was 58.2 min. For the same compound, the Vd in data set [3] came to 4.61 L/kg.
With `CC[C@@H](Nc1ncnc(N)c1-c1ccon1)c1nc2cccc(Cl)c2c(=O)n1C1CC1` [Ex. 49, (R)-2-(1-((6-amino-5-(isoxazol-3-yl)pyrimidin-4-yl)amino)propyl)-5-chloro-3-cyclopropylquinazolin-4(3H)-one], in data set [1], the half-life at 5 μM was determined as 43.8 min and the CLint scaled at 5 μM was 39.7 mL/min/kg. Moreover, in data set [2], the half-life at 5 μM was determined as 2.43 min and the intrinsic metabolic clearance (CLint scaled) at 5 μM was 1020 mL/min/kg. Also, in data set [3], the “clearance (CL)” value turned out to be 85.3 mL/min/kg, the bioavailability is 4.37%, the exposure AUC(0-t) stood at 196 ng·h/mL and the half-life is 39.6 min. For the same compound, the Vd in data set [3] stood at 4.1 L/kg.
Consider `CC[C@H](Nc1ncnc(N)c1-c1ccon1)c1nc2cccc(C)c2c(=O)n1C1CC1` [Ex. 47, (S)-2-(1-((6-amino-5-(isoxazol-3-yl)pyrimidin-4-yl)amino)propyl)-3-cyclopropyl-5-methylquinazolin-4(3H)-one], for which, in data set [1], the half-life at 5 μM was 27.1 min and the intrinsic metabolic clearance (CLint scaled) at 5 μM is 91.6 mL/min/kg. In data set [2], the half-life at 5 μM worked out at 7.63 min and the CLint scaled at 5 μM is 325 mL/min/kg. In data set [3], the “clearance (CL)” value came to 6100 mL/min/kg, the bioavailability was determined as 23.6%, the AUC(0-t) was 271 ng·h/mL and the half-life is 56.4 min. For the same compound, the Vd in data set [3] is 3.16 L/kg.
As for `CC[C@H](Nc1ncnc(N)c1-c1noc(C)n1)c1nc2ccccc2c(=O)n1-c1ccccc1F`, in data set [1], the half-life at 5 μM came to 11 min and the intrinsic metabolic clearance (CLint scaled) at 5 μM is 227 mL/min/kg. Moreover, in data set [2], the half-life at 5 μM was found to be 2.69 min and the CLint scaled at 5 μM was 923 mL/min/kg. In data set [3], the CL/F is 118 mL/min/kg, the bioavailability was found to be 8.88%, the AUC(0-t) was 143 ng·h/mL and the half-life was 63 min. Besides, the Vd in data set [3] was 7.21 L/kg.
On to `CC[C@H](Nc1ncnc(N)c1-c1noc(C)n1)c1nc2cccc(C)c2c(=O)n1-c1ccccc1C` [Ex. 15, (S)-2-(1-((6-amino-5-(5-methyl-1,2,4-oxadiazol-3-yl)pyrimidin-4-yl)amino)-propyl)-5-methyl-3-(o-tolyl)quinazolin-4(3H)-one], for which, in data set [1], the half-life at 5 μM worked out at 12.6 min and the CLint scaled at 5 μM is 138 mL/min/kg. Moreover, in data set [2], the half-life at 5 μM was 4.84 min and the CLint scaled at 5 μM was 513 mL/min/kg. Further, in data set [3], the “clearance (CL)” value is 74.2 mL/min/kg, the bioavailability stood at 36.4%, the AUC(0-t) worked out at 223 ng·h/mL and the half-life was 69.6 min. The Vd in data set [3] came to 7.41 L/kg.
As for `C[C@H](Nc1ncnc(N)c1-c1nnn(C)n1)c1nc2cccc(Cl)c2c(=O)n1C1CC1` [Ex. 42, (S)-2-(1-((6-amino-5-(2-methyl-2H-tetrazol-5-yl)pyrimidin-4-yl)amino)ethyl)-5-chloro-3-cyclopropylquinazolin-4(3H)-one], in data set [1], the half-life at 5 μM was 42.4 min and the CLint scaled at 5 μM was 41 mL/min/kg. Moreover, in data set [2], the half-life at 5 μM was determined as 25.3 min and the CLint scaled at 5 μM is 98.2 mL/min/kg. Further, in data set [3], the “clearance (CL)” value was 82 mL/min/kg, the bioavailability turned out to be 33%, the exposure AUC(0-t) was determined as 203 ng·h/mL and the half-life is 54.6 min. Moreover, in data set [3], the Vd came out at 5.15 L/kg.
On to `CC[C@H](Nc1ncnc(N)c1-c1ccon1)c1nc2cccc(F)c2c(=O)n1C1CC1` [Ex. 48, (S)-2-(1-((6-amino-5-(isoxazol-3-yl)pyrimidin-4-yl)amino)propyl)-3-cyclopropyl-5-fluoroquinazolin-4(3H)-one], for which, in data set [1], the half-life at 5 μM was 136 min and the CLint scaled at 5 μM is 12.8 mL/min/kg. In addition, in data set [2], the half-life at 5 μM was found to be 27 min and the intrinsic metabolic clearance (CLint scaled) at 5 μM was 91.8 mL/min/kg. Besides, in data set [3], the “clearance (CL)” value amounted to 67.3 mL/min/kg, the bioavailability amounted to 32.7%, the AUC(0-t) worked out at 254 ng·h/mL and the half-life was 40.8 min. In addition, the Vd in data set [3] was found to be 2.42 L/kg.
For the compound `CC[C@H](Nc1ncnc(N)c1-c1nnn(C)n1)c1nc2cccc(Cl)c2c(=O)n1C1CC1` [Ex. 54, (S)-2-(1-((6-amino-5-(2-methyl-2H-tetrazol-5-yl)pyrimidin-4-yl)amino)-propyl)-5-chloro-3-cyclopropylquinazolin-4(3H)-one], in data set [1], the half-life at 5 μM came to 42.8 min and the intrinsic clearance (CLint scaled) at 5 μM is 40.6 mL/min/kg. In data set [2], the half-life at 5 μM was 99.1 min and the CLint scaled at 5 μM is 25.1 mL/min/kg.
Consider `CC[C@H](Nc1ncnc(N)c1-c1nnn(C)n1)c1nc2cccc(Cl)c2c(=O)n1-c1cccc(F)c1` [Ex. 36, (S)-2-(1-((6-amino-5-(2-methyl-2H-tetrazol-5-yl)pyrimidin-4-yl)amino)propyl)-5-chloro-3-(3-fluorophenyl)quinazolin-4(3H)-one], for which, in data set [1], the half-life at 5 μM was 14.3 min and the CLint scaled at 5 μM was 122 mL/min/kg. Besides, in data set [2], the half-life at 5 μM turned out to be 14.6 min and the CLint scaled at 5 μM is 170 mL/min/kg.

The term half-life denotes the time in which the quantity being followed falls by half. The low end stands for fast loss, the high end for slow loss. A word on the CLint scaled: it is a measure of how fast metabolising enzymes remove a compound, apart from limits set by blood flow. By AUC(0-t) is commonly meant exposure summed from dosing to a finite time, without extrapolation to infinity. In general, CL/F refers to the apparent clearance, not corrected for the fraction that reaches the circulation.
